Experimental data as given in patent US20250361272A1, “HISTIDINE-BASED UNNATURAL AMINO ACID, ITS PRODUCTION AND USE” (priority 2024, published 2025).
Residues, ends and D or L forms follow the SMILES beside them.

Tests used:
P. aeruginosa = assay type: cell-based
K. pneumoniae [1] = assay type: cell-based
K. pneumoniae [2] = test: Infection model 1: treatment of K. pneumoniae-infected A549 lung cells; assay type: cell-based; settings: at 8 μM, surviving bacterial colonies
Procedure: (§1) The number of surviving bacterial colonies after treatment with peptide is shown.
The peptide P14 was tested as an antibiotic against the treatment of K. pneumoniae-infected A549 lung cells.

S. pneumoniae = assay type: cell-based
human blood = test: Haemolysis experiment with fresh blood from a healthy donor; assay type: cell-based
Procedure: (§2) FIGS. 3A and 3B show the viability of HCT116 cells in DMEM with 10% FBS and 1% penicillin/streptomycin (FIG. 3A). The haemolysis experiments were performed with fresh blood from a healthy donor. Both experiments were performed in three independent experiments.
(§3) This is therefore >65-fold higher than the minimum inhibitory concentration against B. subtilis. […] Consequently, the P14 peptide as an antibiotic offers a distinct concentration window for therapeutic use.
3) Haemolysis experiments using human blood from a healthy donor show a haemolytic concentration >50-fold above the minimum inhibitory concentration against B. subtilis.

in vitro = settings: human, 30% human serum in RPMI medium
Procedure: The experiment was performed in RPMI medium with 30% human serum at 37° C. Aliquots of the solution were analysed by HPLC-MS and the relative content was determined using an internal standard (phenol). The experiment was performed in three independent experiments.

E. cloacae = assay type: cell-based
B. subtilis NCIB 3610 = test: Fluorescence microscopy of B. subtilis stained with HADA (peptidoglycan synthesis); assay type: cell-based
From the text: Scale bars represent 2 μm. BF are the bright light images.
Fluorescence microscopy of B. subtilis stained with HADA, showing newly synthesised peptidoglycan from control cells.

Bacillus subtilis = test: Minimum inhibitory concentration (MIC) in Mueller-Hinton medium; assay type: cell-based; settings: relative to Com2
Procedure: The experiments were performed in Mueller-Hinton medium in three independent experiments.
Analogously to P14, these amino acids have been incorporated into the parental sequence of Com2 and were partially tested on their antimicrobial activity against Gram-positive Bacillus Subtilis 3610 NCIB.

HCT116 cells = test: Viability of HCT116 cells (cytotoxicity); assay type: cell-based; settings: CC50 (HCT116) over MIC (B. subtilis)
Procedure: as §2, §3

[3] = Viability of HCT116 cells (cytotoxicity); assay type: cell-based; settings: human; HCT116 cells in DMEM with 10% FBS; read-out: cytotoxic concentration CC50
Procedure: as §2, §3

A. baumannii [4] = assay type: cell-based
E. feacium = assay type: cell-based
A. baumannii [5] = test: Infection model 2: mouse skin infection with A. baumannii; assay type: in vivo; settings: A. baumannii infected mice, superficial abrasion
Procedure: as §1
Infection of the mice was induced by superficial abrasion and incubation with the bacterial culture.

E. coli = test: MIC against ESKAPE pathogens in Mueller-Hinton medium; assay type: cell-based; settings: Gram-negative
S. aureus = test: as above; assay type: cell-based; settings: Gram-positive

CC(=O)Nc1ccc(C(=O)N[C@@H](CCCNC(=N)N)C(=O)N[C@@H](CCCNC(=N)N)C(=O)N[C@@H](Cc2c[n+](Cc3ccc4ccccc4c3)cn2Cc2ccc3ccccc3c2)C(=O)N[C@@H](Cc2c[n+](Cc3ccc4ccccc4c3)cn2Cc2ccc3ccccc3c2)C(=O)N[C@@H](CCCNC(=N)N)C(=O)N[C@@H](Cc2ccccc2)C(N)=O)cc1 [Peptide P14, Aba-RR-Hdn-Hdn-RF-CONH2]
MIC (P. aeruginosa): 12.5 µM | MIC (K. pneumoniae [1]): 12.5 µM | inhibition of bacterial growth in infected A549 lung cells (K. pneumoniae [2]): complete inhibition of bacterial growth | MIC (S. pneumoniae): 2.2 µM | haemolytic concentration relative to the MIC value (human blood; HC50 over MIC (B. subtilis)): > 50 fold | haemolytic concentration HC50 (human blood; fresh blood from a healthy donor): 38.62 ± 2.58 µM | half-life (in vitro): > 840 min | MIC (E. cloacae): 25 µM | HADA staining of newly synthesised peptidoglycan (B. subtilis NCIB 3610): inhibits bacterial polyglycan synthesis | minimum inhibitory concentration (MIC) compared to the parent peptide (Com2) (Bacillus subtilis): > 24 fold | cytotoxic concentration relative to MIC against B. subtilis (HCT116 cells): > 65 fold | CC50 [3]: 50.4 ± 4.48 µM | MIC (A. baumannii [4]): 6.3 µM | MIC (E. feacium): 0.8 µM | potency in mouse skin infection compared to polymyxin B (A. baumannii [5]): can be compared with that of the commonly used polymyxin B | activity in mouse skin infection compared to control peptide P3 (A. baumannii [5]; surviving bacterial colonies): higher activity than the control peptide P3 | MIC (E. coli): 25 µM | MIC (S. aureus): 1.6 µM

N=C(N)NCCC[C@H](NC(=O)[C@H](Cc1c[nH]c2ccccc12)NC(=O)[C@H](Cc1c[nH]c2ccccc12)NC(=O)[C@H](CCCNC(=N)N)NC(=O)[C@@H](N)CCCNC(=N)N)C(=O)N[C@@H](Cc1ccccc1)C(N)=O [Com2, H2N-RRWWRF-CONH2, reference compound] (H-RRWWRF-NH2)
half-life (in vitro): ~24 min

CN[C@H](CC(C)C)C(=O)N[C@H]1C(=O)N[C@@H](CC(N)=O)C(=O)N[C@H]2C(=O)N[C@H]3C(=O)N[C@H](C(=O)N[C@H](C(=O)O)c4cc(O)cc(O)c4-c4cc3ccc4O)[C@H](O)c3ccc(c(Cl)c3)Oc3cc2cc(c3O[C@@H]2O[C@H](CO)[C@@H](O)[C@H](O)[C@H]2O[C@H]2C[C@](C)(N)[C@H](O)[C@H](C)O2)Oc2ccc(cc2Cl)[C@H]1O [vancomycin, reference compound]
HADA staining of newly synthesised peptidoglycan (B. subtilis NCIB 3610): no HADA binding to the cell periphery is visible
